Experimental data from patent publication US12653191B2, “Active compound combinations” (Bayer Aktiengesellschaft, priority 2020, dated 2026).
Read-outs that look alike come from different tables or passages of the source.

Legend:
Alternaria alternate = assay: in vitro-Test with fungal microorganisms, Method A (tables A1-A12); format: cell-based, Alternaria alternata
In short: (§1)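 Compound was dried into wells and overlaid with liquid potato dextrose medium containing spores or mycelium of the fungus. Plates were held at 20° C and 85% RH, and growth was read as extinction at 620 nm after 3–5 days. Efficacy is relative to the untreated control (0% = control growth, 100% = no growth).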

Alternaria alternata = assay: in vitro-Test with fungal microorganisms, Method B (tables A13-A22); format: cell-based; details: Alternaria alternata
In short: (§2)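 Efficacy, relative to untreated control (0% = growth as in control, 100% = no growth), from photometric growth measurement at 600 nm after 3 to 7 days at 20° C., 85% relative humidity. Compound applied in methanol+emulsifier, solvent evaporated, then spore/mycelium-amended liquid medium added.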

Botrytis cinerea = assay: in vitro-Test with fungal microorganisms, Method A (tables B1-B14); format: cell-based; details: Botrytis cinerea
In short: as §1

Cercospora beticola [1] = assay: in vitro-Test with fungal microorganisms, Method A (tables C1-C10); format: cell-based
In short: as §1

Cercospora beticola [2] = assay: in vitro-Test with fungal microorganisms, Method B (tables C11-C20); format: cell-based; details: Cercospora beticola, read-out: Efficacy %
In short: as §2

[3] = tested on: Colletotrichum lindemuthianum; assay: in vitro-Test with fungal microorganisms, Method A (tables D1-D8); format: cell-based; details: Colletotrichum lindemuthianum
In short: as §1

Cordana musae [4] = assay: in vitro-Test with fungal microorganisms, Method A (tables E1-E8); format: cell-based; details: Neocordana musae
In short: as §1

Cordana musae [5] = assay: in vitro-Test with fungal microorganisms, Method B (tables E9-E16); format: cell-based; details: for Efficacy %: single substance
In short: as §2

Diaporthe citri [6] = assay: in vitro-Test with fungal microorganisms, Method A (tables F1-F11); format: cell-based; details: Diaporthe citri
In short: as §1

Diaporthe citri [7] = assay: in vitro-Test with fungal microorganisms, Method B (tables F12-F15); format: cell-based
In short: as §2

Fusarium culmorum [8] = assay: in vitro-Test with fungal microorganisms, Method A (tables G1-G4); format: cell-based; details: Fusarium culmorum, alone, read-out: Efficacy
In short: as §1

Fusarium culmorum [9] = assay: in vitro-Test with fungal microorganisms, Method B (tables G5-G15); format: cell-based; details: Fusarium culmorum, read-out: Efficacy
In short: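 Compound in methanol plus alkylaryl-polyglycol-ether emulsifier dried in wells, then liquid medium containing Fusarium culmorum spores or mycelium added. Incubated 3-7 days at 20° C, 85% relative humidity; growth read at 600 nm. Efficacy relative to untreated control (0% equals control growth, 100% none).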

Parastagonospora nodorum [10] = assay: in vitro-Test with fungal microorganisms, Method A (tables H1-H4); format: cell-based
In short: as §1

Parastagonospora nodorum [11] = assay: in vitro-Test with fungal microorganisms, Method B (tables H5-H8); format: cell-based; details: Parastagonospora nodorum
In short: as §2

[12] = tested on: Ustilago segetum var. avenae; assay: in vitro-Test with fungal microorganisms, Method A (tables I1-I5); format: cell-based
In short: as §1

[13] = tested on: Ustilago segetum var. avenae; assay: in vitro-Test with fungal microorganisms, Method B (tables I6-I11); format: cell-based; details: read-out: Efficacy %
In short: as §2

Colletotrichum coccodes = assay: in vitro-Test with fungal microorganisms, Method B (tables J1-J11); format: cell-based; details: Colletotrichum coccodes
In short: as §2

[14] = read-out: Efficacy %, alone, 1.0 ppm
[15] = read-out: Efficacy %, alone, 5.0 ppm
[16] = read-out: Efficacy %, mixing partner alone, 0.04 ppm
[17] = read-out: Efficacy %, mixing partner alone, 0.2 ppm
[18] = read-out: Efficacy %, mixing partner alone, 1.0 ppm
[19] = read-out: Efficacy %, mixing partner alone, 5.0 ppm

With N#Cc1c[nH]cc1-c1cccc2c1OC(F)(F)O2 [(13.001) fludioxonil, fludioxonil] the inhibition of growth at 0.04 ppm (Alternaria alternate; Alternaria, read-out: Efficacy %, applied alone, 0.04 ppm) was 9%, the inhibition of growth at 0.2 ppm (Alternaria alternate; Alternaria, read-out: Efficacy %, applied alone, 0.2 ppm) was 17% and the inhibition of growth at 1 ppm (Alternaria alternate; Alternaria, read-out: Efficacy %, applied alone, 1.0 ppm) was 97%. It also gave an inhibition of growth at 5 ppm (Alternaria alternate; Alternaria, read-out: Efficacy %, applied alone, 5.0 ppm) of 100%, an Efficacy % (Alternaria alternate; applied alone, 0.04 ppm) of 0% and an inhibition of growth at 1 ppm (Alternaria alternata; read-out: Efficacy, 1 ppm) of 88%. The inhibition of growth at 5 ppm (Alternaria alternata; read-out: Efficacy, 5 ppm) was 100%, the inhibition of growth at 0.04 ppm (Alternaria alternata; read-out: Efficacy, single compound, 0.04 ppm) was 13% and the inhibition of growth at 0.2 ppm (Alternaria alternata; read-out: Efficacy, single compound, 0.2 ppm) was 18%. It also gave an inhibition of growth at 5 ppm (Alternaria alternata; read-out: Efficacy, single compound, 5 ppm) of 99%, an inhibition of growth at 0.2 ppm (Botrytis cinerea; read-out: Efficacy %, alone, 0.2 ppm) of 100% and an inhibition of growth at 1 ppm (Botrytis cinerea; [14]) of 100%. For the same compound, the inhibition of growth at 5 ppm (Botrytis cinerea; [15]) was 100%, the inhibition of growth at 0.04 ppm (Botrytis cinerea; read-out: Efficacy, 0.04 ppm) was 19% and the inhibition of growth at 0.2 ppm (Botrytis cinerea; read-out: Efficacy, 0.2 ppm) was 100%. It also gave an Efficacy % (Cercospora beticola [1]; 5.0 ppm alone) of 98%, an inhibition of growth at 0.04 ppm (Cercospora beticola [1]; Cercospora beticola, read-out: Efficacy %, 0.04 ppm) of 0% and an inhibition of growth at 0.04 ppm (Cercospora beticola [1]; Cercospora beticola, read-out: Efficacy %, 0.04 ppm alone) of 0%. For the same compound, the inhibition of growth at 0.2 ppm (Cercospora beticola [1]; Cercospora beticola, read-out: Efficacy %, 0.2 ppm alone) was 14%, the inhibition of growth at 1 ppm (Cercospora beticola [1]; Cercospora beticola, read-out: Efficacy %, 1.0 ppm) was 55% and the inhibition of growth at 5 ppm (Cercospora beticola [1]; Cercospora beticola, read-out: Efficacy %, 5.0 ppm) was 90%. It also gave an inhibition of growth at 5 ppm (Cercospora beticola [1]; Cercospora beticola, read-out: Efficacy %, 5.0 ppm alone) of 93%, an inhibition of growth at 5 ppm (Cercospora beticola [2]) of 93% and an inhibition of growth at 0.04 ppm [3, 16] of 11%. It also gave an inhibition of growth at 0.2 ppm [3, 17] of 60%, an inhibition of growth at 1 ppm [3, 18] of 85% and an inhibition of growth at 5 ppm [3, 19] of 90%. For the same compound, the inhibition of growth at 0.04 ppm ([3]; read-out: Efficacy %, single active at 0.04 ppm) was 0%, the inhibition of growth at 0.2 ppm ([3]; read-out: Efficacy %, single active at 0.2 ppm) was 58% and the inhibition of growth at 5 ppm ([3]; read-out: Efficacy %, single active at 5.0 ppm) was 88%. For the same compound, the inhibition of growth at 0.04 ppm (Cordana musae [4]; [16]) was 2%, the inhibition of growth at 0.2 ppm (Cordana musae [4]; [17]) was 0% and the inhibition of growth at 1 ppm (Cordana musae [4]; [18]) was 83%. The inhibition of growth at 5 ppm (Cordana musae [4]; [19]) was 55%, the inhibition of growth at 0.04 ppm (Cordana musae [4]; read-out: Efficacy %, single substance, 0.04 ppm) was 0% and the inhibition of growth at 0.04 ppm (Cordana musae [5]; Neocordana musae, read-out: Efficacy) was 6%. The Efficacy % (Cordana musae [5]; 0.2 ppm) was 0%, the Efficacy % (Cordana musae [5]; 1 ppm) was 0% and the Efficacy % (Cordana musae [5]; 5 ppm) was 11%. The inhibition of growth at 0.04 ppm (Diaporthe citri [6]; read-out: Efficacy, applied alone, 0.04 ppm) was 0%, the inhibition of growth at 0.2 ppm (Diaporthe citri [6]; read-out: Efficacy, applied alone, 0.2 ppm) was 0% and the Efficacy (Diaporthe citri [7]; Table F12, 0.2 ppm alone) was 0%. For the same compound, the Efficacy (Diaporthe citri [7]; Table F12, 1 ppm alone) was 9%, the Efficacy (Diaporthe citri [7]; Table F13, 1 ppm alone) was 41% and the Efficacy (Diaporthe citri [7]; Table F13, 5 ppm alone) was 0%. It also gave an inhibition of growth at 0.2 ppm (Fusarium culmorum [8]; 0.2 ppm) of 36%, an inhibition of growth at 1 ppm (Fusarium culmorum [8]; 1.0 ppm) of 98% and an inhibition of growth at 5 ppm (Fusarium culmorum [8]; 5.0 ppm) of 99%. The inhibition of growth at 0.04 ppm (Fusarium culmorum [9]; alone) was 0%, the inhibition of growth at 0.2 ppm (Fusarium culmorum [9]; alone) was 22% and the inhibition of growth at 1 ppm (Fusarium culmorum [9]; alone) was 68%. For the same compound, the inhibition of growth at 5 ppm (Fusarium culmorum [9]; 5 ppm, alone) was 98%, the inhibition of growth at 0.04 ppm (Fusarium culmorum [9]; single active compound) was 0% and the inhibition of growth at 0.2 ppm (Fusarium culmorum [9]; single active compound) was 26%. For the same compound, the inhibition of growth at 1 ppm (Fusarium culmorum [9]; single active compound) was 88%, the Efficacy (Parastagonospora nodorum [10]; 0.04 ppm) was 0% and the Efficacy (Parastagonospora nodorum [10]; 0.2 ppm) was 0%. The Efficacy (Parastagonospora nodorum [10]; single active compound, 0.04 ppm) was 0%, the Efficacy (Parastagonospora nodorum [10]; single active compound, 0.2 ppm) was 0% and the Efficacy (Parastagonospora nodorum [10]; single active compound, 1.0 ppm) was 38%. The Efficacy (Parastagonospora nodorum [10]; single active compound, 5.0 ppm) was 64%, the inhibition of growth at 1 ppm (Parastagonospora nodorum [11]; read-out: Efficacy, 1 ppm) was 58% and the inhibition of growth at 5 ppm (Parastagonospora nodorum [11]; read-out: Efficacy, 5 ppm) was 98%. It also gave an inhibition of growth at 0.04 ppm ([12]; read-out: Efficacy %, alone, 0.04 ppm) of 19%, an inhibition of growth at 1 ppm [12, 14] of 100% and an inhibition of growth at 5 ppm [12, 15] of 100%. It also gave an inhibition of growth at 0.04 ppm [13] of 55%, an inhibition of growth at 0.2 ppm [13] of 93% and an inhibition of growth at 5 ppm [13] of 100%. It also gave an inhibition of growth at 0.04 ppm (Colletotrichum coccodes; read-out: Efficacy %, 0.04 ppm) of 54%, an inhibition of growth at 1 ppm (Colletotrichum coccodes; read-out: Efficacy %, 1 ppm) of 100% and an inhibition of growth at 5 ppm (Colletotrichum coccodes; read-out: Efficacy %, 5 ppm) of 100%. It also gave an inhibition of growth at 0.04 ppm (Colletotrichum coccodes; read-out: Efficacy %, single active compound at 0.04 ppm) of 74%.
